# Reference: US6051406A, “Keratan sulfate 6-sulfotransferase and DNA coding for the same” (Seikagaku Kogyo Kabushiki Kaish, priority 1996, dated 2000)
# B1: partially purified KSST (KSGal6ST) (Homo sapiens) (protein)
# chain: MQCSWKAVLLLALASIAIQYTAIRTFTAKSFHTCPGLAEAGLAERLCEESPTFAYNLSRKTHILILATTRSGSSFVGQLFNQHLDVFYLFEPLYHVQNTLIPRFTQGKSPADRRVMLGASRDLLRSLYDCDLYFLENYIKPPPVNHTTDRIFRRGASRVLCSRPVCDPPGPADLVLEEGDCVRKCGLLNLTVAAEACRERSHVAIKTVRVPEVNDLRALVEDPRLNLKVIQLVRDPRGILASRSETFRDTYRLWRLWYGTGRKPYNLDVTQLTTVCEDFSNSVSTGLMRPPWLKGKYMLVRYEDLARNPMKKTEEIYGFLGIPLDSHVARWIQNNTRGDPTLGKHKYGTVRNSAATAEKWRFRLSYDIVAFAQNACQQVLAQLGYKIAASEEELKNPSVSLVEERDFRPFS
# Assays:
# [1] = target: T1, partially purified KSST (KSGal6ST) (Homo sapiens, UniProt O43916); assay: Effect of added salts and dithiothreitol on KSST activity (Reaction Mixture II); type: biochemical; set-up: made in house; host or cells: COS-7 cells transfected with pCXNKSST (pCXN2 vector); extract partially purified over DEAE-Sephadex A-50 (non-adsorbed fraction) and Heparin-Sepharose CL-6B; details: for Sulfotransferase activity with added salt: salt at final concentration of 5 mM instead of CaCl2, keratan sulfate receptor, Reaction Mixture II
# T1 sequence (O43916 1-411): B1 chain
# Protocol: (§5) Characterization of the KSST partially purified as described above was performed.
# [2] = test system: crude extract of COS-7 cells with pCXNKSST introduced; assay: Sulfotransferase activity for various glycosaminoglycan receptors, crude extract (Reaction Mixture II); type: biochemical; details: 25 nmol glycosaminoglycan as receptor
# Protocol: (§1) Activity for various kinds of glycosaminoglycans as the substrate was assayed by using 25 nmol (as galactosamine for chondroitin sulfate (A and C) and dermatan sulfate, and as glucosamine for keratan sulfate and CDSNS-heparin (completely desulfated, N-sulfated heparin, available from Seikagaku Corp.)) of glycosaminoglycan instead of keratan sulfate.
# (§2) In the above both cases, the reaction mixtures were incubated at 37° C. for 20 minutes, and the reaction was stopped by immersing reaction tubes into boiling water for one minute.
# (§3) After stopping the reaction, 0.1 μmol (as glucuronic acid) of chondroitin sulfate A was added as a carrier, and 3 volumes of ethanol containing 1.3% potassium acetate was added to the reaction mixture to precipitate ^35 S-labeled polysaccharide. The reaction mixture was centrifuged at 10,000×g for 10 minutes, and the resulting precipitates were dissolved in 70 μl of water. The resulting solution (50 μl) was loaded on a desalting column equilibrated with 0.1 M NH4 HCO3, and the eluted fractions containing the ^35 S-labeled polysaccharide were collected. Scintillation cocktail (1 ml, Clearsol, Nakarai Tesque) was added to 200 μl of each of the obtained fractions, and incorporation of ^35 S into the polysaccharide was determined by assaying ^35 S-radioactivity. Activity catalyzing transfer of 1 pmol sulfate group/minute was defined as 1 unit.
# (§4) The adsorbed fraction was eluted with Buffer A containing 0.5 M NaCl, and the eluate was dialyzed against Buffer A containing 50 mM NaCl. The dialysate was used as KSST not containing CST. […] For the activity assay, 25 nmol (as galactosamine for chondroitin, chondroitin sulfate A, chondroitin sulfate C and dermatan sulfate, and as glucosamine for keratan sulfate and CDSNS-heparin) of glycosaminoglycan was used instead of the keratan sulfate contained in the standard reaction mixture.
# [3] = target: T1, partially purified KSST (KSGal6ST); assay: Sulfotransferase activity for various glycosaminoglycan receptors, partially purified KSST (Reaction Mixture II); type: biochemical; set-up: made in house; host or cells: COS-7 cells transfected with pCXNKSST (pCXN2 vector); extract partially purified over DEAE-Sephadex A-50 (non-adsorbed fraction) and Heparin-Sepharose CL-6B; details: for Sulfotransferase activity, Partially purified product: 25 nmol glycosaminoglycan as receptor, Reaction Mixture II, after Heparin-Sepharose CL-6B; for sulfotransferase activity for this receptor relative to keratan sulfate sulfotransferase activity after the purification: partially purified product
# Protocol: as §1, §2, §3
# Homogenate of COS-7 cells with pCXNKSST introduced from 80 dishes (224 mg as protein) was applied to a DEAE-Sephadex A-50 column (Pharmacia, 2.2×13 cm) equilibrated with Buffer A. The column was washed with 500 ml of Buffer A , and then the adsorbed fraction was eluted with Buffer A containing 0.5 M NaCl.
# as §4
# [4] = test system: sulfotransferase activity; assay: Sulfotransferase activity of pCXNKSST-transfected COS-7 cells with other sulfate group receptors; type: cell-based; details: COS-7 cells with KSST cDNA in the correct direction, substance used as sulfate group receptor
# Text: This cDNA was introduced into a plasmid (pCXN2) (a recombinant plasmid where the direction of the promoter is conformed with that of the cDNA was designated as pCXNKSST, and recombinant plasmid where the cDNA was inserted in a reversed direction was designated as pCXNKSST2), and COS-7 cells were transfected with the obtained plasmids by the method described above. […] When dermatan sulfate, heparan sulfate, or completely desulfated, N-sulfated heparin (CDSNS-heparin) was used as the sulfate group receptor, no increase of sulfotransferase activity was observed.
# [5] = target: T1, partially purified KSST (KSGal6ST); details: read-out: Km value for PAPS (sulfate group donor)
# Protocol: as §5
# [6] = substrate: Nc1ncnc2c1ncn2[C@@H]1O[C@H](COP(=O)(O)OS(=O)(=O)O)[C@@H](OP(=O)(O)O)[C@H]1O; assay: purified protein, by the assay type
molecule,measurement,setting,value
[Cl][Ni][Cl] [NiCl2],Sulfotransferase activity with added salt,[1],10.0 pmol/minute/mg protein
Keratan sulfate,"Sulfotransferase activity, Crude extract",[2],0.168 pmol/minute/mg protein × 10^-2
same,"Sulfotransferase activity, Partially purified product",[3],2.51 pmol/minute/mg protein × 10^-2
Chondroitin sulfate A,"Sulfotransferase activity, Crude extract",[2],0.009 pmol/minute/mg protein × 10^-2
same,"Sulfotransferase activity, Partially purified product",[3],0.03 pmol/minute/mg protein × 10^-2
[Cl-].[Cl-].[Mg+2] [MgCl2],Sulfotransferase activity with added salt,[1],18.8 pmol/minute/mg protein
O[C@H](CS)[C@H](O)CS (racemic) [Dithiothreitol],effect on KSST activity,[1]; concentration up to 10 mM,did not affect the KSST activity
Dermatan sulfate,"Sulfotransferase activity, Crude extract",[2],0.005 pmol/minute/mg protein × 10^-2
same,"Sulfotransferase activity, Partially purified product",[3],0.02 pmol/minute/mg protein × 10^-2
same,increase of sulfotransferase activity with this sulfate group receptor,[4],no increase
[Cl-].[Cl-].[Zn+2] [ZnCl2],Sulfotransferase activity with added salt,[1],1.5 pmol/minute/mg protein
O=S(=O)([O-])[O-].[Fe+2] [FeSO4],Sulfotransferase activity with added salt,[1],3.0 pmol/minute/mg protein
Protamine Chloride,Sulfotransferase activity with added salt,[1],8.8 pmol/minute/mg protein
heparan sulfate,increase of sulfotransferase activity with this sulfate group receptor,[4],no increase
[Ba+2].[Cl-].[Cl-] [BaCl2],Sulfotransferase activity with added salt,[1],21.0 pmol/minute/mg protein
Chondroitin,"Sulfotransferase activity, Crude extract",[2],0.016 pmol/minute/mg protein × 10^-2
same,"Sulfotransferase activity, Partially purified product",[3],0.03 pmol/minute/mg protein × 10^-2
same,sulfotransferase activity for this receptor relative to keratan sulfate sulfotransferase activity after the purification,[3],≤ 2%
[Cl][Mn][Cl] [MnCl2],Sulfotransferase activity with added salt,[1],28.0 pmol/minute/mg protein
same,effect on KSST activity,[1]; salts at 5 mM,most strongly enhanced the KSST activity
[Cl-].[Cl-].[Sr+2] [SrCl2],Sulfotransferase activity with added salt,[1],21.6 pmol/minute/mg protein
"Nc1ncnc2c1ncn2[C@@H]1O[C@H](COP(=O)(O)OS(=O)(=O)O)[C@@H](OP(=O)(O)O)[C@H]1O [PAPS, 3'-phosphoadenosine 5'-phosphosulfate]",Km,[5],~0.2 µM
[Cl-].[Cl-].[Co+2] [CoCl2],Sulfotransferase activity with added salt,[1],24.6 pmol/minute/mg protein
[Cl][Cu][Cl] [CuCl2],Sulfotransferase activity with added salt,[1],10.0 pmol/minute/mg protein
Chondroitin sulfate C,"Sulfotransferase activity, Crude extract",[2],0.005 pmol/minute/mg protein × 10^-2
same,"Sulfotransferase activity, Partially purified product",[3],0.02 pmol/minute/mg protein × 10^-2
[Ca+2].[Cl-].[Cl-] [CaCl2],optimum concentration for KSST activity,[1],about 10 mM
same,Sulfotransferase activity with added salt,[1],26.2 pmol/minute/mg protein
same,effect on KSST activity,[1]; salts at 5 mM,most strongly enhanced the KSST activity
"completely desulfated, N-sulfated heparin [CDSNS-heparin]","Sulfotransferase activity, Crude extract",[2],0.109 pmol/minute/mg protein × 10^-2
same,"Sulfotransferase activity, Partially purified product",[3],0.05 pmol/minute/mg protein × 10^-2
same,sulfotransferase activity for this receptor relative to keratan sulfate sulfotransferase activity after the purification,[3],≤ 2%
same,increase of sulfotransferase activity with this sulfate group receptor,[4],no increase
B1,Km,[6],0.2 µM
